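Dose response: 5 concentrations. Exposure: 48 h. Format: 96-well plates. Endpoint: linear interpolation; highest concentration if not reached. GI50 = concentration required for 50% inhibition of growth.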 Active and inactive are the calls of the source. Rule as the data show it: active = GI50 up to about 1.1 µM and inactive = higher.
Tests used:
Assay in all cases: DTP human tumour cell line panel, 48 h
[1] = system: 786-0
[2] = system: A498
[3] = system: A549
[4] = system: ACHN
[5] = system: BT-549
[6] = system: CAKI-1
[7] = system: COLO 205
[8] = system: DU-145
[9] = system: EKVX
[10] = system: HCC 2998
[11] = system: HCT-116
[12] = system: HCT-15
[13] = system: HL-60
[14] = system: HOP-62
[15] = system: HOP-92
[16] = system: HT-29
[17] = system: Hs-578T
[18] = system: IGROV-1
[19] = system: K562
[20] = system: KM12
[21] = system: LOX IMVI
[22] = system: M14
[23] = system: MDA-MB-231
[24] = system: MDA-MB-435
[25] = system: MDA-N
[26] = system: Malme-3M
[27] = system: NCI-H226
[28] = system: NCI-H23
[29] = system: NCI-H460
[30] = system: NCI-H522
[31] = system: NCI/ADR-RES
[32] = system: OVCAR-3
[33] = system: OVCAR-4
[34] = system: OVCAR-5
[35] = system: OVCAR-8
[36] = system: PC-3
[37] = system: RPMI-8226
[38] = system: RXF 393
[39] = system: SF-268
[40] = system: SF-295
[41] = system: SF-539
[42] = system: SK-MEL-28
[43] = system: SK-MEL-5
[44] = system: SK-OV-3
[45] = system: SNB-75
[46] = system: SR
[47] = system: SW-620
[48] = system: T47D
[49] = system: TK-10
[50] = system: U-251
[51] = system: UACC-257
[52] = system: UACC-62
[53] = system: UO-31
[54] = system: CCRF-CEM
[55] = system: MCF7
[56] = system: MOLT-4
[57] = system: SN12C
[58] = system: SNB-19
[59] = system: SK-MEL-2

O=c1oc2ccccc2cc1-c1nc2ccccc2s1
GI50 [1]: 4.58 µM (inactive)
GI50 [2]: 13.4 µM (inactive)
GI50 [3]: 4.94 µM (inactive)
GI50 [4]: 3.51 µM (inactive)
GI50 [5]: 17.2 µM (inactive)
GI50 [6]: 4.92 µM (inactive)
GI50 [7]: 23.2 µM (inactive)
GI50 [8]: 14.2 µM (inactive)
GI50 [9]: 11.5 µM (inactive)
GI50 [10]: 37.2 µM (inactive)
GI50 [11]: 5.08 µM (inactive)
GI50 [12]: 29.6 µM
GI50 [13]: > 100 µM (inactive)
GI50 [14]: 6.14 µM (inactive)
GI50 [15]: 6.65 µM (inactive)
GI50 [16]: 11.2 µM (inactive)
GI50 [17]: 6.55 µM (inactive)
GI50 [18]: 3.33 µM (inactive)
GI50 [19]: 3.61 µM (inactive)
GI50 [20]: 6.89 µM (inactive)
GI50 [21]: 10.1 µM (inactive)
GI50 [22]: 16.5 µM (inactive)
GI50 [23]: 12 µM (inactive)
GI50 [24]: 5.36 µM (inactive)
GI50 [25]: 15.2 µM (inactive)
GI50 [26]: 2.2 µM (inactive)
GI50 [27]: 14.6 µM (inactive)
GI50 [28]: 15.6 µM (inactive)
GI50 [29]: 7.45 µM (inactive)
GI50 [30]: 6.47 µM (inactive)
GI50 [31]: 10 µM (inactive)
GI50 [32]: 6.4 µM (inactive)
GI50 [33]: 11.6 µM (inactive)
GI50 [34]: 23.3 µM (inactive)
GI50 [35]: 7.74 µM (inactive)
GI50 [36]: 17.2 µM (inactive)
GI50 [37]: 2.79 µM (inactive)
GI50 [38]: 11.3 µM (inactive)
GI50 [39]: 8.73 µM (inactive)
GI50 [40]: 8.57 µM (inactive)
GI50 [41]: 2.89 µM (inactive)
GI50 [42]: 21.2 µM (inactive)
GI50 [43]: 19 µM (inactive)
GI50 [44]: 10.1 µM (inactive)
GI50 [45]: 6.3 µM (inactive)
GI50 [46]: 0.491 µM (active)
GI50 [47]: 14.3 µM (inactive)
GI50 [48]: 10.7 µM (inactive)
GI50 [49]: 12.6 µM (inactive)
GI50 [50]: 7.35 µM (inactive)
GI50 [51]: 28.1 µM (inactive)
GI50 [52]: 14.6 µM (inactive)
GI50 [53]: 5.83 µM (inactive)

O=S1(=O)c2ccccc2NC(=S)CC1c1ccccc1 (centres undefined)
GI50 [1]: > 100 µM (inactive)
GI50 [3]: > 100 µM (inactive)
GI50 [4]: > 100 µM (inactive)
GI50 [5]: > 100 µM (inactive)
GI50 [6]: > 100 µM (inactive)
GI50 [54]: > 100 µM (inactive)
GI50 [7]: 36.6 µM (inactive)
GI50 [8]: > 100 µM (inactive)
GI50 [9]: > 100 µM (inactive)
GI50 [11]: > 100 µM (inactive)
GI50 [12]: > 100 µM
GI50 [13]: > 100 µM (inactive)
GI50 [14]: > 100 µM (inactive)
GI50 [16]: > 100 µM (inactive)
GI50 [17]: > 100 µM (inactive)
GI50 [18]: > 100 µM (inactive)
GI50 [19]: > 100 µM (inactive)
GI50 [20]: > 100 µM (inactive)
GI50 [21]: > 100 µM (inactive)
GI50 [22]: > 100 µM (inactive)
GI50 [55]: > 100 µM (inactive)
GI50 [23]: > 100 µM (inactive)
GI50 [24]: > 100 µM (inactive)
GI50 [25]: > 100 µM (inactive)
GI50 [56]: > 100 µM (inactive)
GI50 [26]: > 100 µM (inactive)
GI50 [27]: > 100 µM (inactive)
GI50 [28]: > 100 µM (inactive)
GI50 [29]: > 100 µM (inactive)
GI50 [30]: > 100 µM (inactive)
GI50 [31]: > 100 µM (inactive)
GI50 [32]: > 100 µM (inactive)
GI50 [33]: > 100 µM (inactive)
GI50 [34]: > 100 µM (inactive)
GI50 [35]: 72.9 µM (inactive)
GI50 [36]: > 100 µM (inactive)
GI50 [37]: > 100 µM (inactive)
GI50 [38]: > 100 µM (inactive)
GI50 [39]: > 100 µM (inactive)
GI50 [40]: 26.3 µM (inactive)
GI50 [42]: > 100 µM (inactive)
GI50 [43]: > 100 µM (inactive)
GI50 [44]: > 100 µM (inactive)
GI50 [57]: > 100 µM (inactive)
GI50 [58]: > 100 µM (inactive)
GI50 [45]: > 100 µM (inactive)
GI50 [46]: > 100 µM (inactive)
GI50 [48]: > 100 µM (inactive)
GI50 [49]: > 100 µM (inactive)
GI50 [50]: > 100 µM (inactive)
GI50 [51]: 24.8 µM (inactive)
GI50 [52]: > 100 µM (inactive)
GI50 [53]: > 100 µM (inactive)

O=[N+]([O-])c1cc(-[n+]2cc([O-])on2)ccc1Cl
GI50 [1]: 21.3 µM (inactive)
GI50 [3]: 31 µM (inactive)
GI50 [4]: 16 µM (inactive)
GI50 [5]: 19.9 µM (inactive)
GI50 [6]: 2.44 µM (inactive)
GI50 [54]: 23.6 µM (inactive)
GI50 [7]: 27.7 µM (inactive)
GI50 [8]: 16.9 µM (inactive)
GI50 [9]: 19 µM (inactive)
GI50 [10]: 18.1 µM (inactive)
GI50 [11]: 16.1 µM (inactive)
GI50 [12]: 20.7 µM
GI50 [13]: 35 µM (inactive)
GI50 [14]: 15.3 µM (inactive)
GI50 [15]: 19.2 µM (inactive)
GI50 [16]: 15.1 µM (inactive)
GI50 [17]: 13.6 µM (inactive)
GI50 [18]: 24.3 µM (inactive)
GI50 [19]: 42.4 µM (inactive)
GI50 [20]: 22 µM (inactive)
GI50 [21]: 17.9 µM (inactive)
GI50 [22]: 15.5 µM (inactive)
GI50 [55]: 19.4 µM (inactive)
GI50 [23]: 17.4 µM (inactive)
GI50 [24]: 27.6 µM (inactive)
GI50 [25]: 14.9 µM (inactive)
GI50 [26]: 13.6 µM (inactive)
GI50 [27]: 83.8 µM (inactive)
GI50 [28]: 13.7 µM (inactive)
GI50 [29]: 34.2 µM (inactive)
GI50 [30]: 17.8 µM (inactive)
GI50 [31]: 18 µM (inactive)
GI50 [32]: 37.3 µM (inactive)
GI50 [33]: 14 µM (inactive)
GI50 [34]: 18.1 µM (inactive)
GI50 [35]: 20.6 µM (inactive)
GI50 [36]: > 100 µM (inactive)
GI50 [37]: 24.3 µM (inactive)
GI50 [38]: 14.8 µM (inactive)
GI50 [39]: 22.2 µM (inactive)
GI50 [40]: 23.7 µM (inactive)
GI50 [42]: 16.1 µM (inactive)
GI50 [59]: 21.5 µM (inactive)
GI50 [43]: 10.2 µM (inactive)
GI50 [44]: 33.5 µM (inactive)
GI50 [57]: 16.3 µM (inactive)
GI50 [58]: 14.2 µM (inactive)
GI50 [45]: 25.8 µM (inactive)
GI50 [46]: 29.9 µM (inactive)
GI50 [47]: 13.4 µM (inactive)
GI50 [48]: 16.4 µM (inactive)
GI50 [49]: 18.6 µM (inactive)
GI50 [50]: 17 µM (inactive)
GI50 [51]: 13.8 µM (inactive)
GI50 [52]: 27.8 µM (inactive)
GI50 [53]: 17.3 µM (inactive)

Cc1ccc(O)c(-c2cc(-c3ccccc3)nc(/N=C\c3ccccc3)n2)c1
GI50 [1]: 32.5 µM (inactive)
GI50 [3]: 23.1 µM (inactive)
GI50 [4]: 13.1 µM (inactive)
GI50 [5]: 0.126 µM (active)
GI50 [54]: 18.6 µM (inactive)
GI50 [8]: > 100 µM (inactive)
GI50 [9]: 47.8 µM (inactive)
GI50 [11]: 28.4 µM (inactive)
GI50 [12]: 11.6 µM
GI50 [13]: 35.2 µM (inactive)
GI50 [14]: 18.1 µM (inactive)
GI50 [15]: 43.7 µM (inactive)
GI50 [16]: > 100 µM (inactive)
GI50 [17]: 25.3 µM (inactive)
GI50 [18]: 16.6 µM (inactive)
GI50 [19]: 45.6 µM (inactive)
GI50 [20]: 17.5 µM (inactive)
GI50 [21]: 21.8 µM (inactive)
GI50 [22]: > 100 µM (inactive)
GI50 [55]: 2.6 µM (inactive)
GI50 [23]: 77.3 µM (inactive)
GI50 [24]: > 100 µM (inactive)
GI50 [25]: 94.2 µM (inactive)
GI50 [56]: 18.2 µM (inactive)
GI50 [26]: > 100 µM (inactive)
GI50 [27]: 30.3 µM (inactive)
GI50 [28]: 24.4 µM (inactive)
GI50 [29]: 17.9 µM (inactive)
GI50 [30]: > 100 µM (inactive)
GI50 [31]: 21.5 µM (inactive)
GI50 [32]: 23.7 µM (inactive)
GI50 [33]: 31.4 µM (inactive)
GI50 [34]: > 100 µM (inactive)
GI50 [35]: 20.4 µM (inactive)
GI50 [36]: > 100 µM (inactive)
GI50 [39]: 21.9 µM (inactive)
GI50 [40]: 36.1 µM (inactive)
GI50 [41]: 29.6 µM (inactive)
GI50 [42]: > 100 µM (inactive)
GI50 [59]: 25.8 µM (inactive)
GI50 [43]: 31.5 µM (inactive)
GI50 [57]: 42.9 µM (inactive)
GI50 [58]: 29.8 µM (inactive)
GI50 [45]: 15.3 µM (inactive)
GI50 [46]: 59.4 µM (inactive)
GI50 [47]: > 100 µM (inactive)
GI50 [48]: 7.69 µM (inactive)
GI50 [49]: 97.1 µM (inactive)
GI50 [50]: 20.9 µM (inactive)
GI50 [51]: > 100 µM (inactive)
GI50 [52]: 8.17 µM (inactive)
GI50 [53]: 2.94 µM (inactive)

— ChEMBL document CHEMBL1201862, “PubChem BioAssay data set” (2004)
